These are literature values, as cited in patent US20250381202A1, “PRODRUG KIT FOR MULTI-PRONGED CHEMOTHERAPY” (priority 2022, published 2025).

Where two headings read alike, the source gives them in different places.

For this data set the following is noted: in vivo tumor model, area under the curve until the drug concentration reaches zero.

For `COc1cccc2c1C(=O)c1c(O)c3c(c(O)c1C2=O)C[C@@](O)(C(=O)CO)C[C@@H]3O[C@H]1C[C@H](N)[C@H](O)[C@H](C)O1` [doxorubicin, Doxorubicin], the AUC0-t reads like this: (In blood) 80.9 µg·min/mL; (Tumor Mean PK) 33.4 µg·min/mL.
